Consider 11 molecules from patent US11207379B2, “Peptides with anti-cancer activity” (IDP DISCOVERY PHARMA, S.L., priority 2016, dated 2021).

Holding throughout (assay): Viability assay (MTT, Alamar Blue, hexosaminidase), 72 h
Common to all, as to type: cell-based
A general note: The colour change of resazurin is a common sign of viable cells or microbes.

For test [1], the target named is MCF-7, epithelial (breast cancer). On the procedure:
MCF-7, epithelial (breast cancer), ECACC: 86012803
(§1) Cell lines A549, MCF-7 and RAMOS were cultured in incubator under CO2 (6%) at 37° C. in DMEM high glucose (Dulbecco's Modified Eagle Solution, Gibco-BRL 31966-21) medium with 10% fetal bovine serum inactivated (FBS) (Gibco-BRL 10106-169). Cell lines HL-60 and MM.1S were cultured in incubator at 37° C. in RPMI-1640 (Sigma R8758) medium with 10% of fetal bovine serum inactivated (FBS) and 2 mM glutamine (Sigma G7513). Cell lines BJ were cultured in incubator under CO2 (6%) at 37° C. in Eagle's Minimum Essential Medium (Sigma, M-2279) with 10% fetal bovine serum inactivated (FBS) (Gibco-BRL 10106-169).
(§2) During the amplification step and the assays adherent cells were rinsed with DPBS (Dulbecco's Phosphate Buffered Saline, Sigma D1283) three times and afterward treated for 5 minutes with trypsin ([…]) (Gibco-BRL, 15400054) in solution of DPBS at 37° C., and, once detached, transferred in the culturing medium. No-adherent cells were centrifuged and transferred in the culturing medium. Cells were counted in a Neubauer chamber after labelling with Tripan-Blue.
(§3) A549, MCF-7 and JB cells were seeded at a density of 5000 cells/well and HL-60, MM.1S and Ramos at 10000 cells/well in 100 μl of medium in 96 well plates. After 24 h, the compounds to be tested were added to calculate the dose/response curve at the starting concentration of 100 μM with serial dilutions (1:1). Controls are the untreated cells. Each experiment was performed in triplicate.
(§4) Cells were incubated during 72 h in incubator under CO2 atmosphere at 37° C. Cell viability was measured by means of MTT (3-(4,5-dimethylthiazol-2-yl)-2.5-diphenyltetrazolium bromide) assay, Alamar Blue® (Biosource DAL1100) and Hexosaminidase activity test, consecutively, following manufacturer instructions.
(§5) MTT: 1. Stock solution of MTT (475989 Calbiochem) was 5 mg/ml in PBS 1×. As negative control (experiment noise) 3 wells were treated with 20 μl/well of a solution of SDS 10% in H2O. The same control was used for Alamar Blue/Hexosaminidase. 10 μl/well of MTT solution were added and the plate was incubated for 3-4 hr. The medium was discarded and 100 μl of extracting buffer (PBS 1×, 15% SDS, 50% […] N,N-Dimethylformamide, pH 4.7) were added to each well. Plates were incubated for 16 h at room temperature under orbital shaking. Absorbance at 570 nm was finally measured.
(§6) Alamar Blue: 10 μl Alamar Blue solution was added to each well and the plates were incubated for […] in the incubator. Fluorescence ratio at 535/590 (excitation/emission) was measured in Cytofluor (Millipore) fluorimeter. Blank control was determined by lysis of untreated cells with con 2% of Triton X100, right before adding Alamar Blue solution.
(§7) Hexosaminidase activity test: after Alamar Blue lecture, medium was discarded and plates were rinsed once with PBS. 60 μl hexosaminidase substrate (p-nitrophenol-N-acetyl-beta-D-glucosamide 7.5 mM [Sigma N-9376], sodium citrate 0.1 M, pH 5.0, 0.25% Triton X-100) was added to each well and the plates were incubated at 37° C. for 2-5 h, according to the cell type (hexosaminidase activity changes according to the cell type). […] Blank control was the same as described before.
(§8) Data analysis was performed calculating the percentage of cell viability normalized vs. the values of negative control, which was considered equal to 100%. The dose/response curve was fitted through the sigmoidal equation dose-response (variable slope) and the EC50 values were calculated as follow: Y=Bottom+(Top−Bottom)/(1+10^{[(Log EC50−X)*HillSlope]},

Test [2] addresses MM.1S, B Lymphoblast (multiple myeloma). On the procedure: MM.1S, B Lymphoblast (multiple myeloma), ATCC: CRL-2974
as §1, §2, §3, §4, §5, §6, §7, §8

Test [3] deals with RAMOS, B lymphocyte (Burkitt's Lymphoma). On the procedure:
RAMOS, B lymphocyte (Burkitt's Lymphoma), ATCC: CRL-1596
as §1, §2, §3, §4, §5, §6, §7, §8

The target in test [4] is HL-60, promyeloblast (acute myelocytic leukemia, AML). On the procedure: HL-60, promyeloblast (acute myelocytic leukemia, AML), ECACC: 98070106
as §1, §2, §3, §4, §5, §6, §7, §8

For test [5], the target named is A549, epithelial (lung cancer). On the procedure: A549, epithelial (lung cancer), ATCC:CCL-185
as §1, §2, §3, §4, §5, §6, §7, §8

Like-named read-outs stand apart in the source and are kept apart here. Bridge positions count the residues as written; N and C are the ends. Square brackets hold non-standard residues; d marks the D form. Ends that are not written are not given here. Peptide text beside a SMILES is read from it. R8 = C=CCCCCCC[C@@](C)(N)C(=O)O; S5 = C=CCCC[C@](C)(N)C(=O)O

One may read the EC50 as the midpoint of the concentration-response curve. Regarding `CCc1ccc(/C=C2/SC(=S)NC2=O)cc1` [10058-F4, reference compound], the EC50 in test [1] (MCF7 cells, read-out: EC50) is around 52 µM; in test [2] (MM.1S cells, read-out: EC50), above 100 µM; in test [3] (Ramos cells, read-out: EC50), around 57 µM; in test [4] (HL-60 cells, read-out: EC50) it was 54 ± 2 µM; in test [5] (A549 cells, read-out: EC50) it was above 100 µM.
Consider `CC(C)C[C@@H]1NC(=O)[C@H](C)NC(=O)[C@H](C)NC(=O)[C@H](Cc2ccccc2)NC(=O)[C@](C)(NC(=O)[C@H](CCCNC(=N)N)NC(=O)[C@H](CCCCN)NC(=O)[C@H](CC(C)C)NC(=O)[C@H](CCC(=O)O)NC(=O)[C@H](CC(N)=O)NC(=O)[C@H](CCCNC(=N)N)NC(=O)[C@H](CCCNC(=N)N)NC(=O)[C@H](CCC(N)=O)NC(=O)[C@@H](N)CCCNC(=N)N)CCCCCC/C=C\CCC[C@@](C)(C(N)=O)NC(=O)[C@H](CC(=O)O)NC(=O)[C@H](CCCNC(=N)N)NC1=O` [IDP-S04, RQRRNELKRXFAALRDX-H2] (H-RQRRNELKR[R8]FAALRD[S5]-NH2; staple (Z) 10-17; N-terminus assumed), for which the concentration for a half-maximal effect (EC50) is around 60 µM in test [1] (MCF7 cells, read-out: EC50); 19 ± 1 µM in test [2] (MM.1S cells, read-out: EC50); around 64 µM in test [3] (Ramos cells, read-out: EC50); around 24 µM in test [4] (HL-60 cells, read-out: EC50).
In the case of `CC(C)C[C@@H]1NC(=O)[C@H](C)NC(=O)[C@H](Cc2ccccc2)NC(=O)[C@H](Cc2ccccc2)NC(=O)[C@](C)(NC(=O)[C@H](CCCNC(=N)N)NC(=O)[C@H](CCCCN)NC(=O)[C@H](CC(C)C)NC(=O)[C@H](CCC(=O)O)NC(=O)[C@@H](N)CC(N)=O)CCCCCC/C=C\CCC[C@@](C)(C(N)=O)NC(=O)[C@H](CC(=O)O)NC(=O)[C@H](CCCNC(=N)N)NC1=O` [IDP-S13, NELKRXFFALRDX-NH2] (H-NELKR[R8]FFALRD[S5]-NH2; staple (Z) 6-13; N-terminus assumed), the EC50 in test [1] (MCF7 cells, read-out: EC50) is above 100 µM; in test [2] (MM.1S cells, read-out: EC50), above 100 µM; in test [3] (Ramos cells, read-out: EC50), above 100 µM; in test [4] (HL-60 cells, read-out: EC50), above 100 µM.
Regarding `CC[C@H](C)[C@H](NC(=O)[C@@H](NC(=O)[C@@H](NC(=O)[C@H](CCCCN)NC(=O)[C@@H]1CCCN1C(=O)[C@H](C)N)C(C)C)C(C)C)C(=O)N[C@]1(C)CCCCCC/C=C\CCC[C@@](C)(C(=O)N[C@@H](CC(C)C)C(=O)N[C@@H](CO)C(N)=O)NC(=O)[C@H](Cc2ccc(O)cc2)NC(=O)[C@H](C)NC(=O)[C@H]([C@@H](C)O)NC(=O)[C@H](C)NC(=O)[C@H](CCCCN)NC(=O)[C@H](CCCCN)NC1=O` [IDP-S17, APKVVIXKKATAYXLS] (H-APKVVI[R8]KKATAY[S5]LS-NH2; staple (Z) 7-14; N-terminus and C-terminus assumed), the EC50 in test [1], in test [2], in test [3], in test [4] and in test [5] was above 100 µM each time.
As to `CC[C@H](C)[C@@H]1NC(=O)[C@H](Cc2ccc(O)cc2)NC(=O)[C@H](C)NC(=O)[C@H]([C@@H](C)O)NC(=O)[C@H](C)NC(=O)[C@H](CCCCN)NC(=O)[C@](C)(NC(=O)[C@H](CC(C)C)NC(=O)[C@@H](NC(=O)[C@@H](NC(=O)[C@@H](NC(=O)[C@H](CCCCN)NC(=O)[C@@H]2CCCN2C(=O)[C@H](C)N)C(C)C)C(C)C)[C@@H](C)CC)CCCCCC/C=C\CCC[C@@](C)(C(=O)N[C@@H](CO)C(N)=O)NC1=O` [IDP-S18, APKVVILXKATAYIXS] (H-APKVVIL[R8]KATAYI[S5]S-NH2; staple (Z) 8-15; N-terminus and C-terminus assumed), the EC50 in test [1], in test [2], in test [3], in test [4] and in test [5] was above 100 µM throughout.
`CC[C@H](C)[C@H](NC(=O)[C@]1(C)CCC/C=C\CCCCCC[C@@](C)(NC(=O)[C@@H](NC(=O)[C@@H](NC(=O)[C@H](CCCCN)NC(=O)[C@@H]2CCCN2C(=O)[C@H](C)N)C(C)C)C(C)C)C(=O)N[C@@H](CC(C)C)C(=O)N[C@@H](CCCCN)C(=O)N[C@@H](CCCCN)C(=O)N[C@@H](C)C(=O)N[C@@H]([C@@H](C)O)C(=O)N[C@@H](C)C(=O)N1)C(=O)N[C@@H](CC(C)C)C(=O)N[C@@H](CO)C(N)=O` [IDP-S22, APKVVXLKKATAXILS] (H-APKVV[R8]LKKATA[S5]ILS-NH2; staple (Z) 6-13; N-terminus and C-terminus assumed): the EC50 in test [1], in test [2], in test [3], in test [4] and in test [5] was above 100 µM in each case.
For the molecule APKXVIFKKAXAYILS-OH [IDP-S14], the EC50 amounted to 6.6 ± 0.9 µM in test [2] (MM.1S cells, read-out: EC50); 55 µM in test [3] (Ramos cells, read-out: EC50); 7.8 ± 0.4 µM in test [4] (HL-60 cells, read-out: EC50); 9.1 ± 0.8 µM in test [5] (A549 cells, read-out: EC50).
Consider QRRNXLKRAFAXLRD-OH [IDP-S312], for which, in test [2] (MM.1S cells, read-out: EC50), the EC50 was around 25 µM.
With “RQRRNELKRSFFALRDQ [IDP-L11, RQRRNELKRSFFALRDQ]”, the EC50 in test [1], in test [2], in test [3] and in test [4] was above 100 µM each time.
As to RQRRNELKRXFFALRDX-NH2 [IDP-S12], the EC50 in test [1] (MCF7 cells, read-out: EC50) stood at 42 ± 2 µM; in test [2] (MM.1S cells, read-out: EC50), 22 ± 2 µM; in test [3] (Ramos cells, read-out: EC50), 52 ± 2 µM; in test [4] (HL-60 cells, read-out: EC50), 23 ± 1 µM; in test [5] (A549 cells, read-out: EC50) it was 50 µM.
In the case of RQRRNXLKRAFAXLRD-OH [IDP-S311], the EC50 in test [2] (MM.1S cells, read-out: EC50) was around 15 µM.
